Read-outs that look alike come from different tables or passages of the source.
Columns and labels:
HCT116 WT cells = experiment: HCT116 proliferation assay, WT cells (CellTiter-Glo, 6 days); assay type: cell-based; settings: read-out: Prolif_HCT116-WT IC50
How it was run: (§1)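 Both lines grow in RPMI 1640 containing 10% fetal bovine serum. After an overnight rest, they receive compound at up to 1 or 10 µM in threefold serial dilutions, with vehicle wells holding DMSO only.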

PRMT5/MEP50 = PRMT5/MEP50 (Homo sapiens, UniProt O14744); experiment: MTase-Glo methyl transferase assay, Method A (Histone H4 peptide, 1 µM MTA, 24 h pre-incubation); assay type: biochemical; set-up: made in house; settings: read-out: PRMT5 MTase Glo Ki (nM, Meth. A)
How it was run: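 PRMT5/MEP50 (10 nM) pre-incubated 24 h with compound, 5 µM SAM and 1 µM MTA, then reaction started with 1 µM Histone H4 (1-21) peptide and run 2 h at room temperature in Tris pH 8.0 buffer. SAH formed detected by MTase-Glo luminescence; IC50 and KI from dose-response curves.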

HCT116 MTAP null cells = experiment: HCT116 proliferation assay, MTAP null cells (CellTiter-Glo, 6 days); assay type: cell-based; settings: read-out: Protif_ HCT116-MTAP null IC50
How it was run: as §1

PRMT5/MEP50, sequence (O14744 whole entry): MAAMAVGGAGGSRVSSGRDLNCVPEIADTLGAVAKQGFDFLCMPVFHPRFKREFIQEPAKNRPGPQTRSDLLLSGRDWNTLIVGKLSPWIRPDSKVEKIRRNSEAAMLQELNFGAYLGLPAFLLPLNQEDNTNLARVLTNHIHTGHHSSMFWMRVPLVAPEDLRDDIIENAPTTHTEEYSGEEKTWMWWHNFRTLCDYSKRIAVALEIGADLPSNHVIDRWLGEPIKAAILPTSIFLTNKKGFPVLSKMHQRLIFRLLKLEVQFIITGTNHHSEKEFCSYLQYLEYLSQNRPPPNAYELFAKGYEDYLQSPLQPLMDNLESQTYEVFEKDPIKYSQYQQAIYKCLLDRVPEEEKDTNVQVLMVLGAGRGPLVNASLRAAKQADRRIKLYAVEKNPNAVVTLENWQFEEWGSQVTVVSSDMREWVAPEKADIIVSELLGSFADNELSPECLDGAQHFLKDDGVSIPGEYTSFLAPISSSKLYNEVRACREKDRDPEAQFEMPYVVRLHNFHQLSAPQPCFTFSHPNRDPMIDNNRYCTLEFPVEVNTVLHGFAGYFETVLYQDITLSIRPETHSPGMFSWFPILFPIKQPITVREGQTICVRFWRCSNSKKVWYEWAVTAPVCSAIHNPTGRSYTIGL
PRMT5/MEP50, sequence (Q9BQA1 whole entry partner): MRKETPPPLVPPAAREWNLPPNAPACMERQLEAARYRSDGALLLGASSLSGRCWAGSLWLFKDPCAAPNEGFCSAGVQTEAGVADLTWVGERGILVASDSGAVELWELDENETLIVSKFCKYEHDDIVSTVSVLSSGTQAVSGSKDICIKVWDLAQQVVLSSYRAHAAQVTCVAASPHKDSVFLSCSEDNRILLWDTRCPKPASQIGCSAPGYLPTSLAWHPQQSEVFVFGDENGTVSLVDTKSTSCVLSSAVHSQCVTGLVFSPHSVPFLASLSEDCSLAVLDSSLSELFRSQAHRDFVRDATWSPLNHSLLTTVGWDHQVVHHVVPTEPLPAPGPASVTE

Row | IC50 (HCT116 WT cells; Homo sapiens, HCT-116, 144 h) [nM] | Ki (PRMT5/MEP50) [nM] | IC50 (HCT116 MTAP null cells; HCT116-MTAP null, 144 h) [nM] | IC50 (HCT116 MTAP null cells) [nM] | IC50 (HCT116 WT cells) [nM] | Compound | IC50 (HCT116 MTAP null cells; 144 h) [nM]
1 | 2410 | 0.33 | 124 |  |  | Cc1cc2cc(C(=O)N(Cc3ccc(C(F)(F)F)cn3)[C@@H](c3ncccn3)C3CC3)cnc2nc1N [Example 372, 7-amino-N-((R)-cyclopropyl(2-pyrimidinyl)methyl)-6-methyl-N-((5-(trifluoromethyl)-2-pyridinyl)methyl)-1,8-naphthyridine-3-carboxamide] | 
2 | 1370 | 0.03 | 159 |  |  | Nc1nc2ncc(C(=O)N(Cc3ccc(C(F)(F)F)cn3)[C@@H](c3ncccn3)C3CC3)cc2cc1Br [Example 373, 7-amino-6-bromo-N-((R)-cyclopropyl(2-pyrimidinyl)methyl)-N-((5-(trifluoromethyl)-2-pyridinyl)methyl)-1,8-naphthyridine-3-carboxamide] | 
3 | 8570 | 0.48 | 341 |  |  | Cc1cc2cc(C(=O)N(Cc3ccc(C(F)(F)F)cn3)[C@H](C)c3ncccn3)ncc2nc1N [Example 374, 2-amino-3-methyl-N-((1R)-1-(2-pyrimidinyl)ethyl)-N-((5-(trifluoromethyl)-2-pyridinyl)methyl)-1,7-naphthyridine-6-carboxamide] | 
4 | 2130 | 0.87 | 64 |  |  | CCOc1ccc(CN(C(=O)c2ccc3nc(N)c(C)cc3c2)[C@H](C)c2ncccn2)nc1 [Example 375, 2-amino-N-((5-ethoxy-2-pyridinyl)methyl)-3-methyl-N-((1R)-1-(2-pyrimidinyl)ethyl)-6-quinolinecarboxamide] | 
5 | 1510 | 0.02 | 62 |  |  | Cc1cc2cc(C(=O)N(Cc3ccc(OC4CC4)cn3)[C@H](C)c3ncccn3)ccc2nc1N [Example 376, 2-amino-N-((5-(cyclopropyloxy)-2-pyridinyl)methyl)-3-methyl-N-((1R)-1-(2-pyrimidinyl)ethyl)-6-quinolinecarboxamide] | 
6 | 2560 | 0.07 | 61 |  |  | CCOc1ccc(CN(C(=O)c2ccc3nc(N)c(C)cc3c2)[C@H](C)c2ncccn2)nn1 [Example 377, 2-amino-N-((6-ethoxy-3-pyridazinyl)methyl)-3-methyl-N-((1R)-1-(2-pyrimidinyl)ethyl)-6-quinolinecarboxamide] | 
7 | 6960 | 0.04 | 340 |  |  | Cc1cc2cc(C(=O)N(Cc3ccc(NCC(F)(F)F)nn3)[C@H](C)c3ncccn3)ccc2nc1N [Example 378, 2-amino-3-methyl-N-((1R)-1-(2-pyrimidinyl)ethyl)-N-((6-((2,2,2-trifluoroethyl)amino)-3-pyridazinyl)methyl)-6-quinolinecarboxamide] | 
8 | > 10000 | 0.89 | 541 |  |  | C[C@H](c1ncccn1)N(Cc1ccc(C(F)F)cn1)C(=O)c1cnc2nc(N)c(Cl)cc2c1 [Example 379] | 
9 | 1670 | 0.27 | 79 |  |  | Cc1cc2cc(C(=O)N(Cc3ccc(C(F)F)nn3)[C@H](C)c3ncccn3)ccc2nc1N [Example 380, 2-amino-N-((6-(difluoromethyl)-3-pyridazinyl)methyl)-3-methyl-N-((1R)-1-(2-pyrimidinyl)ethyl)-6-quinolinecarboxamide] | 
10 | 8970 | 0.33 | 194 |  |  | C[C@H](c1ncccn1)N(Cc1ccc(C(F)F)cn1)C(=O)c1ccc2nc(N)c(Cl)cc2c1 [Example 381, 2-amino-3-chloro-N-((5-(difluoromethyl)-2-pyridinyl)methyl)-N-((1R)-1-(2-pyrimidinyl)ethyl)-6-quinolinecarboxamide] | 
11 | 9680 | 0.16 | 278 |  |  | CCOc1ccc(CN(C(=O)c2cnc3nc(N)c(Br)cc3c2)[C@H](C)c2ncccn2)nn1 [Example 382, 7-amino-6-bromo-N-((6-ethoxy-3-pyridazinyl)methyl)-N-((1R)-1-(2-pyrimidinyl)ethyl)-1,8-naphthyridine-3-carboxamide] | 
12 | 5320 | 2.06 | 434 |  |  | Cc1cc2cc(C(=O)N(Cc3ccc(F)cn3)Cc3ccc(C(F)(F)F)cn3)ccc2nc1N [Example 383, 2-amino-N-((5-fluoro-2-pyridinyl)methyl)-3-methyl-N-((5-(trifluoromethyl)-2-pyridinyl)methyl)-6-quinolinecarboxamide] | 
13 | 5100 | 0.01 | 177 |  |  | Cc1cc2cc(C(=O)N(Cc3ccc(C(F)(F)F)cn3)Cc3ncc(F)cc3F)ccc2nc1N [Example 384, 2-amino-N-((3,5-difluoro-2-pyridinyl)methyl)-3-methyl-N-((5-(trifluoromethyl)-2-pyridinyl)methyl)-6-quinolinecarboxamide] | 
14 | > 10000 | 1.67 | 884 |  |  | Cc1cc2cc(C(=O)N(Cc3ncccc3F)Cc3ncc(F)cc3F)ccc2nc1N [Example 387, 2-amino-N-((3,5-difluoro-2-pyridinyl)methyl)-N-((3-fluoro-2-pyridinyl)methyl)-3-methyl-6-quinolinecarboxamide] | 
15 | 4880 | 0.15 | 137 |  |  | C[C@H](c1ncccc1F)N(Cc1ccc(C(F)(F)F)cn1)C(=O)c1cnc2nc(N)c(Br)cc2c1 [Example 388, 7-amino-6-bromo-N-((1R)-1-(3-fluoro-2-pyridinyl)ethyl)-N-((5-(trifluoromethyl)-2-pyridinyl)methyl)-1,8-naphthyridine-3-carboxamide] | 

Continued, molecule first:

Row | Compound | IC50 (HCT116 WT cells; Homo sapiens, HCT-116, 144 h) [nM] | Ki (PRMT5/MEP50) [nM] | IC50 (HCT116 MTAP null cells; HCT116-MTAP null, 144 h) [nM] | IC50 (HCT116 MTAP null cells) [nM] | IC50 (HCT116 WT cells) [nM] | IC50 (HCT116 MTAP null cells; 144 h) [nM]
16 | Cc1cc2cc(C(=O)N(Cc3ccc(C(F)(F)F)nn3)[C@@H]3CCC[C@H]3O)ccc2nc1N [Example 363, 2-amino-N-((1R,2R)-2-hydroxycyclopentyl)-3-methyl-N-((6-(trifluoromethyl)pyridazin-3-yl)methyl)quinoline-6-carboxamide] | 7160 | 0.2 | 326 |  |  | 
17 | Cc1cc2cc(C(=O)N(Cc3ccc(C(F)F)cn3)[C@@H]3CCC[C@H]3O)ccc2nc1N [Example 364, 2-amino-N-((5-(difluoromethyl)pyridin-2-yl)methyl)-N-((1R,2R)-2-hydroxycyclopentyl)-3-methylquinoline-6-carboxamide] | 6200 | 0.18 | 227 |  |  | 
18 | Cc1cc2cc(C(=O)N(Cc3ccc(C#N)cn3)[C@@H]3CCC[C@H]3O)ccc2nc1N [Example 365, 2-amino-N-((5-cyanopyridin-2-yl)methyl)-N-((1R,2R)-2-hydroxycyclopentyl)-3-methylquinoline-6-carboxamide] | > 10000 | 0.42 | 391 |  |  | 
19 | Cc1cc2cc(C(=O)N(Cc3ccc(Br)nn3)[C@@H]3CCC[C@H]3O)ccc2nc1N [Example 366, 2-amino-N-((6-bromo-3-pyridazinyl)methyl)-N-((1R,2R)-2-hydroxycyclopentyl)-3-methyl-6-quinolinecarboxamide] | 7010 | 0.18 | 218 |  |  | 
20 | COc1ccc(CN(C(=O)c2ccc3nc(N)c(C)cc3c2)[C@@H]2CCC[C@H]2O)nn1 [Example 367, 2-amino-N-((1R,2R)-2-hydroxycyclopentyl)-N-((6-methoxypyridazin-3-yl)methyl)-3-methylquinoline-6-carboxamide] | > 10000 | 0.41 | 282 |  |  | 
21 | Cc1cc2cc(C(=O)N(Cc3ccc(C(F)(F)F)cn3)Cc3ccnc4[nH]ccc34)cnc2nc1N [Example 368, N-((1H-pyrrolo[2,3-b]pyridin-4-yl)methyl)-7-amino-6-methyl-N-((5-(trifluoromethyl)pyridin-2-yl)methyl)-1,8-naphthyridine-3-carboxamide] | 7660 | 0.14 |  | 411 |  | 
22 | Cc1cc2cc(C(=O)N(Cc3ccc4[nH]ncc4c3)Cc3ccc(C(F)(F)F)cn3)ccc2nc1N [Example 369, 2-amino-N-(1H-indazol-5-ylmethyl)-3-methyl-N-((5-(trifluoromethyl)-2-pyridinyl)methyl)-6-quinolinecarboxamide] |  | 0.17 |  | 138 | 3400 | 
23 | COCCN(Cc1ccc(C(F)(F)F)cn1)C(=O)c1ccc2nc(N)c(C)cc2c1 [Example 370, 2-amino-N-(2-methoxyethyl)-3-methyl-N-((5-(trifluoromethyl)-2-pyridinyl)methyl)-6-quinolinecarboxamide] | 5620 | 0.79 | 194 |  |  | 
24 | Cc1cc2cc(C(=O)N(Cc3ccc(C(F)(F)F)cn3)Cc3cccc4[nH]ncc34)ccc2nc1N [Example 371, 2-amino-N-(1H-indazol-4-ylmethyl)-3-methyl-N-((5-(trifluoromethyl)-2-pyridinyl)methyl)-6-quinolinecarboxamide] | 1390 | 0.01 | 69 |  |  | 
25 | Cc1cc2cc(C(=O)N(Cc3ccc(C(F)(F)F)cn3)[C@H](C)c3ncccc3F)ccc2nc1N [Example 385, 2-amino-N-((1R)-1-(3-fluoro-2-pyridinyl)ethyl)-3-methyl-N-((5-(trifluoromethyl)-2-pyridinyl)methyl)-6-quinolinecarboxamide] | 1310 | 0.08 |  |  |  | 55
26 | Cc1cc2cc(C(=O)N(Cc3ccc(C(F)(F)F)cn3)[C@@H](C)c3ncccc3F)ccc2nc1N [Example 386, 2-amino-N-((1S)-1-(3-fluoro-2-pyridinyl)ethyl)-3-methyl-N-((5-(trifluoromethyl)-2-pyridinyl)methyl)-6-quinolinecarboxamide] | 3830 | 3.46 |  |  |  | 241
